Experimental data: patent publication EP4740948A1 (Dong Wha Pharm. Co., Ltd., priority 2023, dated 2025)

Key:
Lovo cells = assay: Cancer cell proliferation inhibition (Cell Counting Kit-8), colorectal cancer cell line; type: cell-based; settings: Homo sapiens, LoVo, 264 h, 1000 nM, cultured seven to 11 days; read-out: % inhibition rate LoVo
How it was run: (§1)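 One dose only (1000 nM), 7–11 d exposure, 10% FBS in line-appropriate medium; CCK-8 endpoint, inhibition expressed relative to control.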

MIA-PaCa-2 cells = assay: Cancer cell proliferation inhibition (Cell Counting Kit-8), pancreatic cancer cell line; type: cell-based; settings: Homo sapiens, MIA PaCa-2, 264 h, 1000 nM, cultured seven to 11 days; read-out: % inhibition rate MIA-Paca2
How it was run: as §1

NCI-H1299 cells = assay: Cancer cell proliferation inhibition (Cell Counting Kit-8), lung cancer cell line; type: cell-based; settings: Homo sapiens, NCI-H1299, 264 h, 1000 nM, cultured seven to 11 days; read-out: % inhibition rate NCI-H129 9
How it was run: as §1

EZH2 = EZH2 (Homo sapiens, UniProt Q15910); assay: AlphaLISA enzyme activity inhibition, EZH2; type: biochemical; settings: for inhibition at 0.005 µM: 5nM test substance; for inhibition at 0.01 µM: 10nM test substance
Chain of EZH2 (Q15910 whole entry, species assumed): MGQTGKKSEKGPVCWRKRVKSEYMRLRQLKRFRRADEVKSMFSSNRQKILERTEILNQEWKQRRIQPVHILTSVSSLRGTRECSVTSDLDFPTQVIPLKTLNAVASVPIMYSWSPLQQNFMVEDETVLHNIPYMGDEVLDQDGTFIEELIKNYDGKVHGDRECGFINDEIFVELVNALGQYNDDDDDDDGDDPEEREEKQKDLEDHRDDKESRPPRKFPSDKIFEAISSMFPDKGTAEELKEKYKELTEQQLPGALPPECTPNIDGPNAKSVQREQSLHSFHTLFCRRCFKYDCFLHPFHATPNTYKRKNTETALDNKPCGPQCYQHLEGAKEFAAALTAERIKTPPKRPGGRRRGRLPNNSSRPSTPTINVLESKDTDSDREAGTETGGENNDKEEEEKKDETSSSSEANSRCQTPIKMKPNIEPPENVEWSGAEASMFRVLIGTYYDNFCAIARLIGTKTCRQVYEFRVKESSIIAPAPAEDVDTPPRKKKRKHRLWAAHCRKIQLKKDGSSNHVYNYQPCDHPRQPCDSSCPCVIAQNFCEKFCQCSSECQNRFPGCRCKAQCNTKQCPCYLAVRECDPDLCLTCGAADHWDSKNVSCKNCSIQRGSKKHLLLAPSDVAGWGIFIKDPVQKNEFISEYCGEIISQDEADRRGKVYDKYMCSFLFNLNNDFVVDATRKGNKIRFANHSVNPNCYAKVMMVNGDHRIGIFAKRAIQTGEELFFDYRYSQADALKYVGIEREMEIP
Chain of EZH2 (O75530 whole entry partner, species assumed): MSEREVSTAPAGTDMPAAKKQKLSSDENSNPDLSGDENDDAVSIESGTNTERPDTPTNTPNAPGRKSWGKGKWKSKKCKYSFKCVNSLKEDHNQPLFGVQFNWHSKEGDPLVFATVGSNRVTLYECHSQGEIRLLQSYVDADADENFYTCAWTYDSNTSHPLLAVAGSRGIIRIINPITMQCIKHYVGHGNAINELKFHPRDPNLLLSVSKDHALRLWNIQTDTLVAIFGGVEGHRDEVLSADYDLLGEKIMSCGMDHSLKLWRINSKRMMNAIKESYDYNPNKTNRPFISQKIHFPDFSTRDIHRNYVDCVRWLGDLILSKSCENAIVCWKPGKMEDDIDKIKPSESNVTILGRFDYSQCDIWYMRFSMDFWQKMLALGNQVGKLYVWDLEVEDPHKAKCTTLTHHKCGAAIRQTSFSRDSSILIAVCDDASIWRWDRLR
Chain of EZH2 (Q15022 whole entry partner, species assumed): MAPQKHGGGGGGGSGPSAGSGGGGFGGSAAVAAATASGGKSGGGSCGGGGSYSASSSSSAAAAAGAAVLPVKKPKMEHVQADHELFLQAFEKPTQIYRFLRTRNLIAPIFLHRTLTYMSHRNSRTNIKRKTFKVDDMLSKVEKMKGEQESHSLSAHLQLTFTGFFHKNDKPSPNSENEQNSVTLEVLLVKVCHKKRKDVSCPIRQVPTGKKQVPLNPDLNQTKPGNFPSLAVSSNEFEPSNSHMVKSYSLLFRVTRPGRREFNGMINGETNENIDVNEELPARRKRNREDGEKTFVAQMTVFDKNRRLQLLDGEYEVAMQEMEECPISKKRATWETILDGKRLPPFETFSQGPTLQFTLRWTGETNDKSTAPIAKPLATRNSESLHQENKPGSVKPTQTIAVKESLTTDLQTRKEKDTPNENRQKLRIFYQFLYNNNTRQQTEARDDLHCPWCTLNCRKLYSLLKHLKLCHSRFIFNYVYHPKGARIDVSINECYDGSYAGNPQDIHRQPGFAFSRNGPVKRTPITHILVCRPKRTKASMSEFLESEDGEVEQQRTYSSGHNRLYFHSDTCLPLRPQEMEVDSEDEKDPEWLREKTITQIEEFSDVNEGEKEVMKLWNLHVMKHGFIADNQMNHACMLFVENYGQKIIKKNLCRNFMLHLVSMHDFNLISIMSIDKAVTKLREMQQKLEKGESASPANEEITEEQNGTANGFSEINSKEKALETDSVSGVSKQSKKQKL
How it was run: (§2)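 EZH1 or EZH2 was mixed with compound at 5 nM or 10 nM final in 20 mM Tris pH 8.0, 0.1% BSA, 0.5 mM DTT, then histone H3 peptide and SAM were added. After 2 h reaction, AlphaLISA acceptor and donor beads detected methylation; inhibition rate was calculated against DMSO control.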

EZH1 = EZH1 (Homo sapiens, UniProt Q92800); assay: AlphaLISA enzyme activity inhibition, EZH1; type: biochemical; settings: for inhibition at 0.005 µM: 5nM test substance; for inhibition at 0.01 µM: 10nM test substance
Chain of EZH1 (Q92800 whole entry, species assumed): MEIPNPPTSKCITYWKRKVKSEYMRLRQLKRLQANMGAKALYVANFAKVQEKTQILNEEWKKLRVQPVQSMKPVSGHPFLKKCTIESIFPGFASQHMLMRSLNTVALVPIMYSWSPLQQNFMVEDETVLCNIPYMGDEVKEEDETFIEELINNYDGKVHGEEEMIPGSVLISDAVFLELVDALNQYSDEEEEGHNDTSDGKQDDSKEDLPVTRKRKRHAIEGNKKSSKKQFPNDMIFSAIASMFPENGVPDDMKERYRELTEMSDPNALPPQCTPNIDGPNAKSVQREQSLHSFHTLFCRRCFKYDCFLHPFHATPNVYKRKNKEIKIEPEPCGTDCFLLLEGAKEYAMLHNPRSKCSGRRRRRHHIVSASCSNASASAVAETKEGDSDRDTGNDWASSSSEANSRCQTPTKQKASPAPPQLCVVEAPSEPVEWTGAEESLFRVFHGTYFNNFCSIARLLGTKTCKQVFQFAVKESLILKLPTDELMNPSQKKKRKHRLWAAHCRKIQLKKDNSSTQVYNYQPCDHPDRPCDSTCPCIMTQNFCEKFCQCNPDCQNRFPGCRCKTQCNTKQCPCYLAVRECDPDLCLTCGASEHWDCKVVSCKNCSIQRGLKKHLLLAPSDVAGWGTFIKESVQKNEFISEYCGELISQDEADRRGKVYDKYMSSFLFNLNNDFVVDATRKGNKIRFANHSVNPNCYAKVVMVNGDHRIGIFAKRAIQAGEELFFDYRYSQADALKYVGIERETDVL
Chain of EZH1 (O75530 whole entry partner, species assumed): as the sequence (O75530 whole entry partner, species assumed) above
Chain of EZH1 (Q15022 whole entry partner, species assumed): as the sequence (Q15022 whole entry partner, species assumed) above
How it was run: as §2

SW-13 cells = assay: Cancer cell proliferation inhibition (Cell Counting Kit-8), adrenal cancer cell line; type: cell-based; settings: Homo sapiens, SW13, 264 h, 1000 nM, cultured seven to 11 days; read-out: % inhibition rate SW-13
How it was run: as §1

MKN-45 cells = assay: Cancer cell proliferation inhibition (Cell Counting Kit-8), gastric cancer cell line; type: cell-based; settings: Homo sapiens, MKN-45, 264 h, 1000 nM, cultured seven to 11 days; read-out: % inhibition rate MKN -45
How it was run: (§3)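 Cells grown in RPMI1640, McCoy's 5a, L-15 or DMEM with 10% FBS, seeded at 100 to 1,000 cells/well and treated with test substance at 1000 nM for 7 to 11 days. Viability read by CCK-8; % inhibition = {1−(test/control)} × 100.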

G401 cells = assay: Cancer cell proliferation inhibition (Cell Counting Kit-8), rhabdoid tumor cell line; type: cell-based; settings: Homo sapiens, G-401, 264 h, 1000 nM, cultured seven to 11 days; read-out: % inhibition rate G401
How it was run: as §3

SMILES | inhibition at 0.005 µM (EZH2) | inhibition at 0.005 µM (EZH1) | inhibition at 0.01 µM (EZH2) | inhibition at 0.01 µM (EZH1) | inhibition at 1 µM (Lovo cells) | inhibition at 1 µM (MIA-PaCa-2 cells) | inhibition at 1 µM (NCI-H1299 cells) | inhibition at 1 µM (SW-13 cells) | inhibition at 1 µM (MKN-45 cells) | inhibition at 1 µM (G401 cells)
CSc1cc(C)[nH]c(=O)c1CNC(=O)c1cc(-c2ccc(N3C[C@@H](C)O[C@@H](C)C3)nc2)c2c(c1C)OC(C)([C@H]1CC[C@H](N(C)CC(F)(F)F)CC1)O2 (stereo partly drawn) [Compound 20, 7-(6-((2S,6R)-2,6-dimethylmorpholino)pyridin-3-yl)-2,4-dimethyl-2-(trans-4-(methyl(2,2,2-trifluoroethyl)amino)cyclohexyl)-N-((6-methyl-4-(methylthio)-2-oxo-1,2-dihydropyridin-3-yl)methyl)benzo[d][1,3]dioxole-5-carboxamide] | 26.1% | 34.3% |  |  | ≥ 70% | ≤ 30% | ≤ 30% | ≤ 30% | 30 to 70% | 30 to 70%
CSc1cc(C)[nH]c(=O)c1CNC(=O)c1cc(-c2cnc(N3C[C@@H](C)O[C@@H](C)C3)nc2)c2c(c1C)OC(C)(C1CCN(CC(F)(F)F)CC1)O2 (stereo partly drawn) [Compound 38, 7-(2-((2S,6R)-2,6-dimethylmorpholino)pyrimidin-5-yl)-2,4-dimethyl-N-((6-methyl-4-(methylthio)-2-oxo-1,2-dihydropyridin-3-yl)methyl)-2-(1-(2,2,2-trifluoroethyl)piperidin-4-yl)benzo[d][1,3]dioxole-5-carboxamide] | 57.4% | 40.6% |  |  | ≥ 70% | ≤ 30% | 30 to 70% | ≤ 30% | 30 to 70% | ≥ 70%
COc1ccc(-c2cc(C(=O)NCc3c(SC)cc(C)[nH]c3=O)c(C)c3c2OC(C)(C2CCN(CC(F)(F)F)CC2)O3)cn1 (stereo not drawn) [Compound 36, 7-(6-methoxypyridin-3-yl)-2,4-dimethyl-N-((6-methyl-4-(methylthio)-2-oxo-1,2-dihydropyridin-3-yl)methyl)-2-(1-(2,2,2-trifluoroethyl)piperidin-4-yl)benzo[d][1,3]dioxole-5-carboxamide] | 83.1% | 57.4% |  |  | ≥ 70% | ≤ 30% | ≤ 30% | ≤ 30% | ≤ 30% | ≥ 70%
CSc1cc(C)[nH]c(=O)c1CNC(=O)c1cc(-c2ccc(N3C[C@@H](C)O[C@@H](C)C3)nc2)c2c(c1C)OC(C)([C@H]1CC[C@H](N(C)CC3OCCO3)CC1)O2 (stereo partly drawn) [Compound 32, 2-(trans-4-(((1,3-dioxolan-2-yl)methyl)(methyl)amino)cyclohexyl)-7-(6-((2S,6R)-2,6-dimethylmorpholino)pyridin-3-yl)-2,4-dimethyl-N-((6-methyl-4-(methylthio)-2-oxo-1,2-dihydropyridin-3-yl)methyl)benzo[d][1,3]dioxole-5-carboxamide] | 82.6% | 74.1% |  |  | ≥ 70% | ≤ 30% | 30 to 70% | 30 to 70% | 30 to 70% | 30 to 70%
CSc1cc(C)[nH]c(=O)c1CNC(=O)c1cc(-c2cnc(N3CCC(F)(F)CC3)nc2)c2c(c1C)OC(C)([C@H]1CC[C@H](N(C)C)CC1)O2 (relative stereo) [Compound 8, 7-(2-(4,4-difluoropiperidin-1-yl)pyrimidin-5-yl)-2-(trans-4-(dimethylamino)cyclohexyl)-2,4-dimethyl-N-((6-methyl-4-(methylthio)-2-oxo-1,2-dihydropyridin-3-yl)methyl)benzo[d][1,3]dioxole-5-carboxamide] | 96.1% | 85.6% |  |  | 30 to 70% | ≤ 30% | ≤ 30% | 30 to 70% | 30 to 70% | 30 to 70%
CSc1cc(C)[nH]c(=O)c1CNC(=O)c1cc(-c2ccsc2)c2c(c1C)OC(C)(C1CCC(N(C)C)CC1)O2 (stereo not drawn) [Compound 42, 2-(4-(dimethylamino)cyclohexyl)-2,4-dimethyl-N-((6-methyl-4-(methylthio)-2-oxo-1,2-dihydropyridin-3-yl)methyl)-7-(thiophen-3-yl)benzo[d][1,3]dioxole-5-carboxamide] | 90.5% | 59.6% |  |  | ≥ 70% | ≤ 30% | 30 to 70% | 30 to 70% | 30 to 70% | ≥ 70%

Second part, led by results:

inhibition at 0.005 µM (EZH2) | inhibition at 0.005 µM (EZH1) | inhibition at 0.01 µM (EZH2) | inhibition at 0.01 µM (EZH1) | SMILES | inhibition at 1 µM (Lovo cells) | inhibition at 1 µM (MIA-PaCa-2 cells) | inhibition at 1 µM (NCI-H1299 cells) | inhibition at 1 µM (SW-13 cells) | inhibition at 1 µM (MKN-45 cells) | inhibition at 1 µM (G401 cells)
90.6% | 34.2% | 99.9% | 69.1% | COC1CN([C@H]2CC[C@H](C3(C)Oc4c(-c5ccc(N6C[C@@H](C)O[C@@H](C)C6)nc5)cc(C(=O)NCc5c(SC)cc(C)[nH]c5=O)c(C)c4O3)CC2)C1 (stereo partly drawn) [Compound 106, 7-(6-((2S,6R)-2,6-dimethylmorpholino)pyridin-3-yl)-2-(trans-4-(3-methoxyazetidin-1-yl)cyclohexyl)-2,4-dimethyl-N-((6-methyl-4-(methylthio)-2-oxo-1,2-dihydropyridin-3-yl)methyl)benzo[d][1,3]dioxole-5-carboxamide] | ≥ 70% | ≤ 30% | 30 to 70% | 30 to 70% | ≤ 30% | ≥ 70%
99.5% | 95.1% |  |  | CSc1cc(C)[nH]c(=O)c1CNC(=O)c1cc(-c2cnc(N3CCCC3)nc2)c2c(c1C)OC(C)([C@H]1CC[C@H](N(C)C)CC1)O2 (relative stereo) [Compound 5, 2-(trans-4-(dimethylamino)cyclohexyl)-2,4-dimethyl-N-((6-methyl-4-(methylthio)-2-oxo-1,2-dihydropyridin-3-yl)methyl)-7-(2-(pyrrolidin-1-yl)pyrimidin-5-yl)benzo[d][1,3]dioxole-5-carboxamide] | 30 to 70% | ≤ 30% | ≤ 30% | 30 to 70% | ≤ 30% | 30 to 70%
86.7% | 28.1% | 100% | 62.1% | CCN(C)[C@H]1CC[C@H](C2(C)Oc3c(-c4ccc(N5C[C@@H](C)O[C@@H](C)C5)nc4)cc(C(=O)NCc4c(SC)cc(C)[nH]c4=O)c(C)c3O2)CC1 (stereo partly drawn) [Compound 111, 7-(6-((2S,6R)-2,6-dimethylmorpholino)pyridin-3-yl)-2-(trans-4-(ethyl(methyl)amino)cyclohexyl)-2,4-dimethyl-N-((6-methyl-4-(methylthio)-2-oxo-1,2-dihydropyridin-3-yl)methyl)benzo[d][1,3]dioxole-5-carboxamide] | ≥ 70% | ≤ 30% | ≤ 30% | 30 to 70% | ≤ 30% | ≥ 70%
98.7% | 78.7% |  |  | CSc1cc(C)[nH]c(=O)c1CNC(=O)c1cc(-c2ccc(Cl)s2)c2c(c1C)OC(C)([C@H]1CC[C@H](N(C)C)CC1)O2 (relative stereo) [Compound 19, 7-(5-chlorothiophen-2-yl)-2-(trans-4-(dimethylamino)cyclohexyl)-2,4-dimethyl-N-((6-methyl-4-(methylthio)-2-oxo-1,2-dihydropyridin-3-yl)methyl)benzo[d][1,3]dioxole-5-carboxamide] | ≥ 70% | ≤ 30% | ≤ 30% | 30 to 70% | 30 to 70% | 30 to 70%
